Reference: ChEMBL document CHEMBL5543059, “Discovery of anti-inflammatory natural flavonoids: Diverse scaffolds and promising leads for drug discovery” (Eur J Med Chem, 2023)

tested on: Mus musculus; assay: Antiinflammatory activity against TPA-induced CD-1 mouse ear edema model assessed as reduction in ear edema at 1 uM relative to control; format: functional; parameters: scale not given: the % may be the effect or the level left; details: not given

SMILES | Activity [%]
O=C1c2c(O)cc(O)cc2O[C@H](c2ccc(O)c(O)c2)[C@H]1O [(+)-TAXIFOLIN] | 12
CC(=O)O[C@@H]1c2c(ccc3c(=O)c(O)c(-c4ccccc4)oc23)OC(C)(C)[C@@H]1OC(C)=O | 12.28
O=C1c2c(O)cc(O)cc2O[C@H](c2ccccc2)[C@H]1O [PINOBAKSIN] | 12.28

tested on: THP-1; assay: Anti-inflammatory activity in LPS-stimulated human THP-1 cells assessed as reduction of TNFalpha measured for 12 hrs by ELISA method; format: functional, cell-based; details: THP-1, 12 h

SMILES | IC50 [µM]
COc1c(OC)c(O)c2c(=O)cc(-c3ccc(O)c(O)c3)oc2c1OC [SIDERITIFLAVONE] | 12.4
COc1c(OC)c(O)c2c(=O)cc(-c3ccc(O)cc3)oc2c1OC [XANTHOMICROL] | 8.1
COc1ccc2oc(-c3ccc(OC)c(OC)c3)cc(=O)c2c1 | 2.4

tested on: BV-2; assay: Anti-inflammatory activity in mouse BV-2 cells assessed as reduction in LPS-induced NO production pre-treated with compounds for 2 hrs followed by LPS-stimulation measured for 22 hrs by Griess reagent based analysis; format: functional, cell-based; details: not given

SMILES | IC50 [µM]
CC(C)=CCc1c(O)ccc(C(=O)/C=C/c2cc3c(cc2O)OCO3)c1O | 5.9
CC(C)=CCc1cc(C(=O)/C=C/c2ccc(O)cc2O)c(O)cc1O | 2.26
COc1c(/C=C/C(=O)c2ccccc2)c(O)cc2occc12 | 10.9
COc1c([C@@H](CC(=O)c2ccccc2)OC)c(O)cc2occc12 | 29.2

tested on: BV-2; assay: Anti-inflammatory activity in mouse BV-2 cells assessed as inhibition of LPS-induced NO production preincubated with compound for 1 hrs followed by LPS stimulation and measured after 24 hrs by Griess reagent based assay; format: functional, cell-based; details: not given

SMILES | IC50 [µM]
COc1cc(O)c2c(=O)c(OC)c(-c3ccc(O)c(O)c3)oc2c1 | 4.2
COc1ccc(-c2oc3cc(O)cc(O)c3c(=O)c2OC)cc1O | 11.1

tested on: RAW264.7; assay: Anti-inflammatory activity in LPS-stimulated mouse RAW264.7 cells assessed as inhibition of NO production incubated for 24 hrs by Griess reagent based assay; format: functional, cell-based; details: RAW264.7, 24 h

SMILES | IC50 [µM]
COc1cc(O)c2c(=O)cc(-c3ccc(O)cc3)oc2c1 [GENKWANIN] | 5.64

tested on: Mus musculus; assay: Antiinflammatory activity against TPA-induced CD-1 mouse ear edema model assessed as reduction in ear edema at 0.25 mg/kg relative to control; format: functional; parameters: scale not given: the % may be the effect or the level left; details: not given

SMILES | Activity [%]
COc1cc(O)c2c(c1)O[C@H](c1ccc(O)cc1)CC2=O [SAKURANETIN] | 45.8
O=C1C[C@@H](c2ccccc2)Oc2cc(O)cc(O)c21 [PINOCEMBRIN] | 67.4
O=C1C[C@@H](c2ccc(O)cc2)Oc2cc(O)cc(O)c21 [NARINGENIN] | 42

tested on: BV-2; assay: Antiinflammatory activity in mouse BV-2 cells assessed as reduction in LPS-induced NO production pre-treated with compound for 1 hr followed by LPS-stimulation and measured for 23 hrs by Griess reagent based analysis; format: functional, cell-based; details: not given

SMILES | IC50 [µM]
COc1c(-c2ccccc2)oc2c3c(ccc2c1=O)OC(C)(C)[C@H](O)C3 | 11.3
COc1cc2oc(-c3ccc4c(c3)OCO4)c(OC)c(=O)c2cc1OC | 11.3
CC(=O)O[C@@H]1c2c(ccc3c(=O)c(O)c(-c4ccccc4)oc23)OC(C)(C)[C@@H]1OC(C)=O | 11.3
COc1c(-c2ccc(O)c(O)c2)oc2c(CC=C(C)C)c3c(c(O)c2c1=O)C=CC(C)(C)O3 | 6.88
COc1c(-c2ccc3c(c2)OCO3)oc2c(ccc3oc(C(C)(C)O)cc32)c1=O | 11.3
CC(C)=CCc1cc(-c2oc3cc(O)cc(O)c3c(=O)c2O)ccc1O [ISOLICOFLAVONOL] | 2.88

tested on: Neutrophil; assay: Inhibition of fMLF/CB-induced human Neutrophil activation assessed as reduction in superoxide anion; format: functional, cell-based; details: not given

SMILES | IC50 [µM]
Cc1cc2oc(-c3ccc(O)c(O)c3)cc(=O)c2c2c1C[C@@]1(C)C(C)(C)CCC[C@@]1(C)O2 | 5.8
O=S(=O)(F)Cc1ccccc1 [PHENYLMETHYLSULFONYLFLUORIDE] | 95
CC1(C)CCC[C@@]2(C)Oc3c(ccc4oc(-c5ccc(O)c(O)c5)cc(=O)c34)C[C@@]12C | 2.2
O=C1C[C@@H](c2ccc(O)cc2)Oc2cc(O)cc(O)c21 [NARINGENIN] | 3.3

tested on: B16-F10; assay: Anti-inflammatory activity in LPS-stimulated mouse B16-F10 cells assessed as reduction in TNFalpha production measured for 12 hrs by ELISA method; format: functional, cell-based; details: B16-F10, 12 h

SMILES | IC50 [µM]
COc1c(OC)c(O)c2c(=O)cc(-c3ccc(O)c(O)c3)oc2c1OC [SIDERITIFLAVONE] | 5.6
COc1c(OC)c(O)c2c(=O)cc(-c3ccc(O)cc3)oc2c1OC [XANTHOMICROL] | 3.8
COc1ccc2oc(-c3ccc(OC)c(OC)c3)cc(=O)c2c1 | 1.3

tested on: RAW264.7; assay: Antiinflammatory activity against mouse RAW264.7 cells assessed as reduction of LPS-induced NO production; format: functional, cell-based; details: not given

SMILES | IC50 [µM]
CC(C)=CCc1c([C@@H]2CCc3ccc(O)cc3O2)cc2c(c1O)OC(C)(C)C=C2 [KAZINOL B] | 29.3
CC(C)=CCc1cc([C@@H]2CCc3ccc(O)cc3O2)ccc1O | 28.4

tested on: Peritoneal macrophage; assay: Antiinflammatory activity in mouse peritoneal macrophages assessed as fold reduction in LPS-induced TNFalpha level at 20 uM incubated for 4 hrs by ELISA method; format: functional; details: not given

SMILES | fold change (FC)
O=C(O)Cc1ccccc1Nc1c(Cl)cccc1Cl [DICLOFENAC] | 1.8

tested on: BV-2; assay: Anti-inflammatory activity in mouse BV-2 cells assessed as reduction in LPS-induced NO production pretreated for 1 hr followed by LPS-stimulation and measured after 18 hrs by 2,3-diaminonaphthalene reagent based fluorescence analysis; format: functional, cell-based; details: not given

SMILES | IC50 [µM]
Oc1ccc2c(c1)OC[C@H](c1cc3c(cc1O)OCO3)[C@H]2O | 40.1
COc1ccc(-c2cc3cc(O)c(O)cc3oc2=O)c(OC)c1OC | 28.3
COc1c(O)ccc2c1OC[C@H](c1cc3c(cc1O)OCO3)[C@H]2O | 46.3

tested on: RAW264.7; assay: Anti-inflammatory activity in mouse RAW264.7 cells assessed as inhibition of LPS-induced nitric oxide production preincubated for 2 hrs followed by LPS stimulation and measured after 24 hrs by Griess assay; format: functional, cell-based; details: not given

SMILES | IC50 [µM]
CC1(C)C=Cc2cc(-c3coc4cc(O)cc(O)c4c3=O)cc(O)c2O1 | 20
CC(C)=CCc1c(O)ccc(-c2coc3c(CC=C(C)C)c(O)cc(O)c3c2=O)c1O | 0.25
CC1(C)C=Cc2c(O)ccc(-c3coc4cc(O)cc(O)c4c3=O)c2O1 | 0.8

tested on: BV-2; assay: Antiinflammatory activity against mouse BV-2 cells assessed as reduction in LPS induced NO production measured for 24 hrs by Griess reagent based analysis; format: functional, cell-based; details: BV-2, 24 h

SMILES | IC50 [µM]
Oc1cc(O)c2c(c1)O[C@H](c1cc(O)c(O)c(O)c1)[C@@H](O)C2 [GALLOCATECHIN] | 30.3
Oc1cc(O)c2c(c1)O[C@H](c1ccc(O)c(O)c1)[C@@H](O)C2 [CIANIDANOL] | 26.1
CNC(=N)NCCC[C@H](N)C(=O)O [TILARGININE] | 14.8

tested on: Neutrophil; assay: Inhibition of fMLF/CB-induced human Neutrophil activation assessed as reduction in elastase release; format: functional, cell-based; details: not given

SMILES | IC50 [µM]
Cc1cc2oc(-c3ccc(O)c(O)c3)cc(=O)c2c2c1C[C@@]1(C)C(C)(C)CCC[C@@]1(C)O2 | 3.8
CC1(C)CCC[C@@]2(C)Oc3c(ccc4oc(-c5ccc(O)c(O)c5)cc(=O)c34)C[C@@]12C | 1.9
O=C1C[C@@H](c2ccc(O)cc2)Oc2cc(O)cc(O)c21 [NARINGENIN] | 5.3
